Literature values in US7771758B2, “Extract of mad-dog skullcap” (Tom's of Maine, priority 2002, dated 2010).

What was measured:
[1] = tested on: benzodiazepine site of the GABAA receptor; details: in vitro; flavones isolated from Scutellaria baicalensis

| SMILES | ability to bind to the benzodiazepine site of the GABAA receptor [1] | intestinal absorption (in vivo) | conjugation in the plasma (plasma) | transformation by intestinal bacteria (intestinal bacteria) |
| --- | --- | --- | --- | --- |
| O=c1cc(-c2ccccc2)oc2cc(O)c(O)c(O)c12 [Baicalein, baicalein] | weak ligands | readily absorbed intestinally | efficiently conjugated back to baicalin | – |
| COc1c(O)cc(O)c2c(=O)cc(-c3ccccc3)oc12 [wogonin] | strong affinity | – | – | – |
| O=C(O)[C@H]1O[C@@H](Oc2cc3oc(-c4ccccc4)cc(=O)c3c(O)c2O)[C@H](O)[C@@H](O)[C@@H]1O [baicalin] | weak ligands | – | – | transformed to its aglycon baicalein |
| COc1c(O)cc2oc(-c3ccccc3)cc(=O)c2c1O [oroxylin A] | strong affinity | – | – | – |
